Consider six molecules from patent US8497278B2, “Imidazo[1,2-a]pyridine compounds” (priority 2008, dated 2013).

In one test the test system is 129SVEV mice. The test is described as follows: Stress-Induced Hyperthermia (SIH) test. In kind it is in vivo. Particulars: mouse, 60 min before test. As for the experimental part: Stress-Induced Hyperthermia (SIH) protocol: The stress-induced hyperthermia (SIH) test is based on the principle that animal's have a natural hyperthermic response to stress. The test involves taking two measures of rectal temperature in the same animal within a 10 minute interval. The two sequential rectal temperature measurements reveal the animal's basal temperature (T1) and 10 minutes later, an enhanced body temperature (T2) due to the stress of the first rectal temperature. The difference T2-T1 (delta T) is the SIH response. When anxiolytic drugs are administered prior to recording temperature, they reduce the stress response.
Adult male 129SVEV mice (6 weeks old) from Taconic Laboratories (Germantown, N.Y.) were used in these studies. Upon receipt, mice were assigned unique identification numbers (tail marked) and were group housed in OptiMICE ventilated racks. All animals remained group housed during the remainder of the study unless indicated otherwise. All mice were acclimated to the colony room for at least two weeks prior to testing and were subsequently tested at 8 weeks of age. During the period of acclimation, mice were examined on a regular basis, handled, and weighed to assure adequate healtH, D and suitability. Mice were maintained on a 12/12 light/dark cycle with the light on at 7:00 a.m. The room temperature was maintained between 20 and 23° C. with a relative humidity maintained between 30% and 70%. Chow and water were provided ad libitum for the duration of the study. Animals were not disturbed between test days.
On the day prior to testing, the mice were brought to the experimental room one hour before scheduled lights out and singly housed overnight with food and water ad libitum. On the morning of the experiment, mice were orally dosed via gavage with vehicle, CDP (10 mg/kg) or compounds of the present invention (3, 10 or 30 mg/kg) and placed back in the cages. One hour after oral gavage, each animal was removed from the holding cage and held in a supine position and rectal temperature was measured. The rectal probe was attached to a PhysiTemp digital thermometer (Fisher Scientific) which provides temperature readings at 0.1° C. accuracy. The probe remained inside the animal for approximately 5 seconds or until body temperature reached stability. This temperature was recorded as the baseline rectal temperature (T1). The animal was immediately placed back to the holding cage and after a 10-min interval the 2nd rectal temperature (T2) was taken using the same procedure as in measuring T1. Before each insertion, the rectal probe was cleaned with an alcohol pad and lubricated with sterile K-Y jelly.
Chlordiazepoxide (10 mg/kg) was used as the positive control. Compounds of the present invention, vehicle (45% hydroxypropyl beta-cyclodextrin) and chlordiazepoxide were administered orally to all groups (n=10 […] per group) 60 minutes prior to behavioral testing. All data were analyzed using an analysis of variance (ANOVA) followed by Fisher's PLSD post hoc test. An effect was considered significance if p<0.05. Statistical outliers above or below 2 standard deviations from the mean in any of the temperature measures were removed from the final analysis.

The subject of another test is Wistar rats. The experiment in a line: Vogel conflict test. It is filed as in vivo. Particulars: rat, 60 min before test, 3 minute test. As for the experimental part:
Vogel Conflict Test Protocol: The Vogel conflict test is an animal model of anxiety described by Vogel et al. (1971). In this test, water deprived animals are placed in a cage with free access to a drinking bottle. Whenever the animal drinks, an electric shock is administered. Animals punished during drinking rapidly cease to drink. Anxiolytic drugs decrease the effect of punishment and increase the number of shocks accepted by the rats in this conflict situation. Male Wistar rats were used in these studies. Rats were deprived of water for approximately 48 hours and then placed individually into a transparent Plexiglas enclosure with a floor consisting of stainless steel bars spaced 1 cm apart. The back wall of the enclosure was made of opaque Plexiglas thereby concealing the observer from the experimental animal. In the center of the opposite wall, 5 cm above the floor, a metal water spout protruded into the cage and was connected to one pole of a shock generator. The other pole of the shock generator was connected to the metal grid floor. The rat is left to explore until it finds the water spout. Then, every time it drinks, it receives an electric shock (1.7 mA, 1 sec duration) 2 seconds after it starts drinking The number of punished drinks is counted during a 3 minute test. Ten rats are studied per treatment group. Clobazam (64 mg/kg) was used as the positive control. Compounds of the present invention, vehicle (45% hydroxypropyl beta-cyclodextrin) and clobazam were administered orally to all groups (n=10 […] per group) 60 minutes prior to behavioral testing. All data were analyzed using unpaired Student's t-tests. An effect was considered significance if p<0.05.

Test [1] concerns central benzodiazepine receptors. The test is described as follows: Central benzodiazepine receptor binding (test of Speth et al.). Particulars: 1000 nM of the compound. The procedure, abridged:
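Values are percent inhibition of central benzodiazepine receptor binding at 1000 nM compound (initial single-point screen at 1.0E-09, 1.0E-07 and 1.0E-05 M). Speth et al. binding test; nonspecific binding defined with excess unlabelled ligand and subtracted from total.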

As for `Clc1ccc(-c2nc3cccnn3c2Cn2cncn2)cc1` [Compound 32, 3-((1H-1,2,4-triazol-1-yl)methyl)-2-(4-chlorophenyl)imidazo[1,2-b]pyridazine], the “Change in Temperature (T2 − T1) Mean ± S.E.M.” value (“Change in Temperature” for short) in the test with 129SVEV mice (3 mg/kg PO) turned out to be 0.26 ± 0.04 °C; in the test with 129SVEV mice (10 mg/kg PO) it was 0.28 ± 0.10 °C; in the test on 129SVEV mice (30 mg/kg PO), 0.37 ± 0.06 °C. Also, the “Number of Shocks Mean ± S.E.M.” value is listed as 3.8 ± 0.6 in the test on Wistar rats (3 mg/kg PO), 3.8 ± 0.7 with Wistar rats (10 mg/kg PO) and 6.6 ± 2.3 in the test on Wistar rats (30 mg/kg PO). Besides, the “% Inhibition at 1000 nM for CBZD” value in test [1] is listed as “++ (percentage of inhibition of central BZD site binding is greater than 80% in the presence of 1000 nM of the compound)”.

In the case of `NC(=O)c1ncn(Cc2c(-c3ccc(Cl)cc3)nc3ccccn23)n1` [Compound 72, 1-((2-(4-chlorophenyl)imidazo[1,2-a]pyridin-3-yl)methyl)-1H-1,2,4-triazole-3-carboxamide], the results for the “Change in Temperature” value with 129SVEV mice (3 mg/kg PO), with 129SVEV mice (10 mg/kg PO) and in the test on 129SVEV mice (30 mg/kg PO) were 0.21 ± 0.11 °C, 0.32 ± 0.05 °C and 0.44 ± 0.10 °C, respectively. In test [1], the “% Inhibition at 1000 nM for CBZD” value was “++ (percentage of inhibition of central BZD site binding is greater than 80% in the presence of 1000 nM of the compound)”.

As to `Cc1ccn(Cc2c(-c3ccc(Cl)cc3)nc3ccccn23)c(=O)n1` [Compound 105, 1-((2-(4-chlorophenyl)imidazo[1,2-a]pyridin-3-yl)methyl)-4-methylpyrimidin-2(1H)-one], the “Number of Shocks Mean ± S.E.M.” value in the test on Wistar rats (3 mg/kg PO) was found to be 5.1 ± 0.6; in the test on Wistar rats (10 mg/kg PO) it was 5.8 ± 0.8; in the test on Wistar rats (30 mg/kg PO) it was 8.2 ± 1.8.

`Clc1ccc(-c2nc3ccccn3c2Cc2ncn[nH]2)cc1` [Compound 211, 3-((1H-1,2,4-triazol-5-yl)methyl)-2-(4-chlorophenyl)imidazo[1,2-a]pyridine]: the “Change in Temperature” value in the test on 129SVEV mice (3 mg/kg PO) amounted to 0.37 ± 0.08 °C; in the test with 129SVEV mice (10 mg/kg PO), 0.33 ± 0.09 °C; in the test with 129SVEV mice (30 mg/kg PO), 0.37 ± 0.09 °C. Besides, the “Number of Shocks Mean ± S.E.M.” value stood at 3.9 ± 0.5 with Wistar rats (3 mg/kg PO), 5.3 ± 0.8 in the test with Wistar rats (10 mg/kg PO) and 5.0 ± 1.1 in the test on Wistar rats (30 mg/kg PO).

For `CNC(=O)c1nccn1Cc1c(-c2ccc(Cl)cc2)nc2ccccn12` [Compound 77, 1-((2-(4-chlorophenyl)H-imidazo[1,2-a]pyridin-3-yl)methyl)-N-methyl-1H-imidazole-2-carboxamide], the figures for the “Change in Temperature” value in the test with 129SVEV mice (3 mg/kg PO), in the test with 129SVEV mice (10 mg/kg PO) and in the test with 129SVEV mice (30 mg/kg PO) were 0.37 ± 0.15 °C, 0.55 ± 0.11 °C and 0.55 ± 0.12 °C, respectively. For the same molecule, the “% Inhibition at 1000 nM for CBZD” value in test [1] is listed as “++ (percentage of inhibition of central BZD site binding is greater than 80% in the presence of 1000 nM of the compound)”.

Turning to `Cn1ncnc1Cc1c(-c2ccc(F)cc2)nc2ccc(F)cn12` [Compound 200, 6-fluoro-2-(4-fluorophenyl)-3-((1-methyl-1H-1,2,4-triazol-5-yl)methyl)imidazo[1,2-a]pyridine], the “Change in Temperature” value was −0.13 ± 0.11 °C in the test with 129SVEV mice (3 mg/kg PO), −0.50 ± 0.15 °C in the test on 129SVEV mice (10 mg/kg PO) and −0.66 ± 0.13 °C with 129SVEV mice (30 mg/kg PO). Besides, the “Number of Shocks Mean ± S.E.M.” value with Wistar rats (3 mg/kg PO) stood at 8.4 ± 2.1; in the test with Wistar rats (10 mg/kg PO), 8.9 ± 2.3; with Wistar rats (30 mg/kg PO) it was 9.5 ± 2.1. Besides, in test [1], the “% Inhibition at 1000 nM for CBZD” value is reported as “++ (percentage of inhibition of central BZD site binding is greater than 80% in the presence of 1000 nM of the compound)”.
